System: NCI-H1341 complex spheroids, percent test/control
Assay: Anticancer human tumor NCI-H1341 cell line growth inhibition [AhR];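 note: spheroids exposed to agents for seven days before readout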
Details: for IC50: curve of first compound; for viability, T/C: stronger effect = lower value; active = viability on the fitted dose curve at most 10% of control; inactive = the rest
Source text: Multicellular complex tumor spheroid response to aryl hydrocarbon receptor antagonists in combination with a variety of drugs and investigational agents in selected tumor cell lines
The current study was undertaken to assess response to aryl hydrocarbon receptor antagonists in combination with standard-of-care drugs and investigational agents in solid tumor complex spheroid models. Complex spheroids include a stromal component modeled by human endothelial cells (HUVEC) and fibroblasts modeled by human mesenchymal stem cells (MSCs). The concentration ranges selected for each drug and investigational agent were based upon clinically achievable concentrations if the clinical Cmax of the agent was known.
Compounds. The drugs and investigational agents: BAY 2416964 (NSC825713), GNF351 (NSC835774), CH-223191 (NSC835775), CPI-455 (NSC825282), aza-TdCyd (NSC777586), decitabine (NSC127716), belinostat (NSC758774), entinostat (NSC756642), pevonedistat (NSC761192), tazemetostat (NSC777109), talazoparib (NSC765396), olaparib (NSC753686), selinexor (NSC780203), nedisertib (M3814, NSC802822), bortezomib (NSC756655), venetoclax (NSC766270), doxorubicin (NSC123127), elimusertib (BAY189344, NSC800525), ceralasertib (AZD6738, NSC777638), TAK-243 (NSC785004), alisertib (NSC759677), etoposide (NSC141540), topotecan (NSC609699), eribulin (NSC707389), gemcitabine (NSC613327), carboplatin (NSC241240), cisplatin (NSC119875), and SN-38 (NSC673596) were obtained from the National Cancer Institute (NCI) Developmental Therapeutics Program Chemical Repository (32). The FDA-approved anticancer drug set is available from the Developmental Therapeutics Program at https://dtp.cancer.gov/organization/dscb/obtaining/available plates.htm. […] The stock solutions were prepared in dimethyl sulfoxide (DMSO, Sigma-Aldrich, St. Louis, MO, cat. D2650), except for the platinum compounds which were prepared in saline (Quality Biological, Gaithersburg, MD, cat. 114-055-101), at 800-fold the tested concentration and stored at -70 degrees C prior to their use. All drugs and investigational agents were tested over a range starting from a high concentration at or near the clinical Cmax and decreasing in half-log increments. If the clinical Cmax for an agent had not been determined, the highest concentration tested was 10 microM (Table 1).
Cell Culture. All cells were maintained in an incubator at 37 degrees C and 5% CO2 with 95% humidity. The PDC lines were cultured according to standard operating procedures established by the NCI PDMR (https://pdmr.cancer.gov). Briefly, all PDCs were thawed and cultured in Matrigel-coated flasks prepared with a working solution of 1X Ham's F-12 nutrient mix, without supplementation (Invitrogen, Waltham, MA, cat. 11765054), 100 U/mL penicillin-streptomycin (Invitrogen, cat. 15140122), and 2.5% Matrigel (Corning Inc., Corning, NY, cat. 354248) for the first three passages. All PDCs were cultured in complete DMEM/F-12 media containing advanced DMEM/F-12 (Invitrogen, cat. 12634028), 4.9% defined fetal bovine serum, heat inactivated (HyClone Laboratories Inc., Logan, UT, cat. SH30070.03HI), 389 ng/mL hydrocortisone (Sigma-Aldrich, cat. H4001), 9.7 ng/mL human EGF recombinant protein (Invitrogen, cat. PHG0313), 23.4 microg/mL adenine (Sigma-Aldrich, cat. A2786), 97.3 U/mL penicillin-streptomycin (Invitrogen, cat. 15140122), 1.9 mM L-glutamine (Invitrogen, cat. 25030081), and 9.7 microM Y-27632 dihydrochloride (Tocris Bioscience, Bristol, United Kingdom, cat. 1254). The PDCs were cultured in complete DMEM/F12 media without 10 microM Y-27632 dihydrochloride for at least two passages prior to the screen. The established cell lines NCI-H1341 and […] were cultured in DMEM/F-12, HEPES (Invitrogen, cat. 11330032), 5% defined fetal bovine serum (HyClone Laboratories Inc., cat. SH30070.03), ITS premix universal culture supplement [insulin (5 microg/mL), transferrin (5 microg/mL), and selenious acid (5 ng/mL)] […]

[1] = second compound 0.1 µM, first compound 0.0316 µM
[2] = second compound 0.1 µM, first compound 0.1 µM
[3] = second compound 0.1 µM, first compound 0.316 µM
[4] = second compound 0.1 µM, first compound 1 µM
[5] = second compound 0.1 µM, first compound 3.16 µM
[6] = second compound 0.1 µM, first compound 10 µM
[7] = second compound 0.316 µM, first compound 0.0316 µM
[8] = second compound 0.316 µM, first compound 0.1 µM
[9] = second compound 0.316 µM, first compound 0.316 µM
[10] = second compound 0.316 µM, first compound 1 µM
[11] = second compound 0.316 µM, first compound 3.16 µM
[12] = second compound 0.316 µM, first compound 10 µM
[13] = second compound 1 µM, first compound 0.0316 µM
[14] = second compound 1 µM, first compound 0.1 µM
[15] = second compound 1 µM, first compound 0.316 µM
[16] = second compound 1 µM, first compound 1 µM
[17] = second compound 1 µM, first compound 3.16 µM
[18] = second compound 1 µM, first compound 10 µM
[19] = second compound 3.16 µM, first compound 0.0316 µM
[20] = second compound 3.16 µM, first compound 0.1 µM
[21] = second compound 3.16 µM, first compound 0.316 µM
[22] = second compound 3.16 µM, first compound 1 µM
[23] = second compound 3.16 µM, first compound 3.16 µM
[24] = second compound 3.16 µM, first compound 10 µM
[25] = second compound 10 µM, first compound 0.0316 µM
[26] = second compound 10 µM, first compound 0.1 µM
[27] = second compound 10 µM, first compound 0.316 µM
[28] = second compound 10 µM, first compound 1 µM
[29] = second compound 10 µM, first compound 3.16 µM
[30] = second compound 10 µM, first compound 10 µM

COc1cccc2c1C(=O)c1c(O)c3c(c(O)c1C2=O)CC(O)(C(=O)CO)CC3OC1CC(N)C(O)C(C)O1 (stereo not given) + CC(CO)NC(=O)c1cc(-c2ccc(Cl)cc2)nn(-c2cnn(C)c2)c1=O
< 31.6 nM: IC50 (second compound 0.316 µM) | IC50 (second compound 3.16 µM) | IC50 (second compound 10 µM)
active: viability, T/C [4] 6.25% | viability, T/C [5] 0.83% | viability, T/C [6] 2.75% | viability, T/C [10] 6.42% | viability, T/C [11] 0.79% | viability, T/C [12] 2.4% | viability, T/C [16] 4.94% | viability, T/C [17] 1.46% | viability, T/C [18] 2.75% | viability, T/C [22] 3.92% | viability, T/C [23] 3.09% | viability, T/C [24] 2.61% | viability, T/C [28] 0.93% | viability, T/C [29] 2.19% | viability, T/C [30] 2.31%
103 nM: IC50 (second compound 1 µM)
inactive: viability, T/C [1] 51% | viability, T/C [2] 53% | viability, T/C [3] 32.4% | viability, T/C [7] 51.3% | viability, T/C [8] 40.9% | viability, T/C [9] 28.4% | viability, T/C [13] 48.4% | viability, T/C [14] 53.3% | viability, T/C [15] 30.2% | viability, T/C [19] 43.9% | viability, T/C [20] 53.7% | viability, T/C [21] 26.7% | viability, T/C [25] 41.6% | viability, T/C [26] 36.8% | viability, T/C [27] 15.2%
108 nM: IC50 (second compound 0.1 µM)

O=C(c1cc(Cc2n[nH]c(=O)c3ccccc23)ccc1F)N1CCN(C(=O)C2CC2)CC1 + Cc1ccccc1N=Nc1ccc(NC(=O)c2ccnn2C)c(C)c1
inactive: viability, T/C [1] 94% | viability, T/C [2] 83.4% | viability, T/C [3] 93.9% | viability, T/C [4] 86.4% | viability, T/C [5] 104% | viability, T/C [6] 69.4% | viability, T/C [7] 87.4% | viability, T/C [8] 84.5% | viability, T/C [9] 97.4% | viability, T/C [10] 71.2% | viability, T/C [11] 72.8% | viability, T/C [12] 59.1% | viability, T/C [13] 94.2% | viability, T/C [14] 97.8% | viability, T/C [15] 68.8% | viability, T/C [16] 78.3% | viability, T/C [17] 81.2% | viability, T/C [18] 69.1% | viability, T/C [19] 67.6% | viability, T/C [20] 72.1% | viability, T/C [21] 65.7% | viability, T/C [22] 74% | viability, T/C [23] 60.9% | viability, T/C [24] 57.3% | viability, T/C [25] 46.2% | viability, T/C [26] 50.3% | viability, T/C [27] 56.3% | viability, T/C [28] 58.6% | viability, T/C [29] 51.2% | viability, T/C [30] 47.5%
> 10000 nM: IC50 (second compound 0.1 µM) | IC50 (second compound 0.316 µM) | IC50 (second compound 1 µM) | IC50 (second compound 3.16 µM) | IC50 (second compound 10 µM)

COc1cc(C2c3cc4c(cc3C(OC3OC5COC(C)OC5C(O)C3O)C3COC(=O)C23)OCO4)cc(OC)c1O (stereo not given) + Cc1ccccc1N=Nc1ccc(NC(=O)c2ccnn2C)c(C)c1
725 nM: IC50 (second compound 1 µM)
10000 nM: IC50 (second compound 0.316 µM)
< 31.6 nM: IC50 (second compound 10 µM)
255 nM: IC50 (second compound 3.16 µM)
inactive: viability, T/C [1] 92.2% | viability, T/C [2] 82.4% | viability, T/C [3] 56% | viability, T/C [4] 46% | viability, T/C [5] 46.3% | viability, T/C [6] 53.4% | viability, T/C [7] 71.3% | viability, T/C [8] 79% | viability, T/C [9] 57.1% | viability, T/C [10] 50.4% | viability, T/C [11] 54.6% | viability, T/C [12] 48.9% | viability, T/C [13] 90.1% | viability, T/C [14] 88.5% | viability, T/C [15] 58.2% | viability, T/C [16] 50.2% | viability, T/C [17] 44.7% | viability, T/C [18] 44.5% | viability, T/C [19] 66.6% | viability, T/C [20] 68.4% | viability, T/C [21] 43.3% | viability, T/C [22] 43.5% | viability, T/C [23] 46.9% | viability, T/C [24] 50.2% | viability, T/C [25] 45.2% | viability, T/C [26] 46.6% | viability, T/C [27] 57.1% | viability, T/C [28] 44.6% | viability, T/C [29] 40.1% | viability, T/C [30] 49.9%
834 nM: IC50 (second compound 0.1 µM)

Cn1ncnc1C1c2n[nH]c(=O)c3cc(F)cc(c23)NC1c1ccc(F)cc1 (stereo not given) + Cc1ccccc1N=Nc1ccc(NC(=O)c2ccnn2C)c(C)c1
> 100 nM: IC50 (second compound 0.1 µM) | IC50 (second compound 0.316 µM) | IC50 (second compound 1 µM) | IC50 (second compound 3.16 µM)
inactive: viability, T/C (second compound 0.1 µM, first compound 0.000316 µM) 112% | viability, T/C (second compound 0.1 µM, first compound 0.001 µM) 105% | viability, T/C (second compound 0.1 µM, first compound 0.00316 µM) 80.9% | viability, T/C (second compound 0.1 µM, first compound 0.01 µM) 86.1% | viability, T/C [1] 95.2% | viability, T/C [2] 90.1% | viability, T/C (second compound 0.316 µM, first compound 0.000316 µM) 89.9% | viability, T/C (second compound 0.316 µM, first compound 0.001 µM) 103% | viability, T/C (second compound 0.316 µM, first compound 0.00316 µM) 93.6% | viability, T/C (second compound 0.316 µM, first compound 0.01 µM) 101% | viability, T/C [7] 90.9% | viability, T/C [8] 84.5% | viability, T/C (second compound 1 µM, first compound 0.000316 µM) 101% | viability, T/C (second compound 1 µM, first compound 0.001 µM) 94.2% | viability, T/C (second compound 1 µM, first compound 0.00316 µM) 80.2% | viability, T/C (second compound 1 µM, first compound 0.01 µM) 88.8% | viability, T/C [13] 84.9% | viability, T/C [14] 59.6% | viability, T/C (second compound 3.16 µM, first compound 0.000316 µM) 75.6% | viability, T/C (second compound 3.16 µM, first compound 0.001 µM) 72.5% | viability, T/C (second compound 3.16 µM, first compound 0.00316 µM) 83.7% | viability, T/C (second compound 3.16 µM, first compound 0.01 µM) 79% | viability, T/C [19] 70.5% | viability, T/C [20] 54.6% | viability, T/C (second compound 10 µM, first compound 0.000316 µM) 56.3% | viability, T/C (second compound 10 µM, first compound 0.001 µM) 56.5% | viability, T/C (second compound 10 µM, first compound 0.00316 µM) 47.7% | viability, T/C (second compound 10 µM, first compound 0.01 µM) 59.9% | viability, T/C [25] 58.2% | viability, T/C [26] 41.7%
70.1 nM: IC50 (second compound 10 µM)

From PubChem BioAssay AID1919014 (Molecular Pharmacology Branch, DTP, NCI, 2023)
